Consider eight compounds from patent US6716814B2, “Enhancing solubility of iron amino acid chelates and iron proteinates” (Albion International, Inc., priority 2001, dated 2004).

Data set [1] in a line: Filter paper ring characterization of aqueous iron bisglycinate (Example 3). The data set is classed as physicochemical. The settings on record: for RING APPEARANCE: compound added to aqueous iron bisglycinate, about 1.8:1 by weight to iron, filter paper after drying.
Data set [2] is described as follows: Visual inspection of hydrated iron proteinate with or without added compound (Example 4). The note with it: compound added to iron proteinate solution, compound to iron content about 1:1 by weight. The data set is classed as physicochemical. The procedure:
(§1) A small amount of the solution was placed on filter paper with a pipette. […] Next, several different organic acids and sugars were added to various samples of the solution. Each was inspected both visually and by placing a small amount of solution on filter paper with a pipette.

Data set [3] in a line: pH of hydrated iron proteinate with or without added compound (Example 4). The data set is classed as physicochemical. The settings on record: compound added to iron proteinate solution, compound to iron content about 1:1 by weight. The procedure:
as §1

A short description of data set [4]: Filter paper ring characterization of hydrated iron proteinate (Example 4). The data set is classed as physicochemical. The note with it: compound added to iron proteinate solution, about 1:1 by weight to iron. As to the method:
An iron proteinate or iron protein hydrolysate which was hydrolyzed from a vegetable protein was formed having an iron content of about 10%. […] A small amount of the solution was placed on filter paper with a pipette. […] Next, several different organic acids and sugars were added to various samples of the solution. Each was inspected both visually and by placing a small amount of solution on filter paper with a pipette. […] This is evidenced by darker rings remaining on the filter paper which corresponded to location of the waterfront.

The nature of data set [5]: Visual inspection of aqueous iron bisglycinate with added compound (Example 3). The data set is classed as physicochemical. The settings on record: compound added to aqueous iron bisglycinate, compound to iron content about 1.8:1 by weight.
A short description of data set [6]: Filter paper test of hydrated samples (Example 1, Phase 1). The data set is classed as physicochemical. The note with it: hydrated with water sufficient to dissolve, after 4 hours, solution placed on filter paper with pipette. As to the method:
After hydrating Sample 1 and Sample 2 with an amount of water sufficient to dissolve the respective powders and allowing 4 hours to pass, a small amount of each solution was placed on filter paper with a pipette. By placing the two solutions on paper in this manner, the respective solutions were allowed to disperse away from the point of application while leaving behind any solids that may have formed.

The nature of data set [7]: Visual examination of solutions retained in test tubes (Example 1, Phase 2). The note with it: solution retained in test tube 20 additional hours (after first 4 hours).

`CC(O)C(=O)O` (centres unmarked) [Lactic Acid]: the “RING APPEARANCE” value was “dark waterfront ring” in data set [1] and “dark brown waterfront ring” in data set [4]. Also, the VISUAL result in data set [2] is given as “no change”; in data set [5], “no precipitation”. The pH in data set [3] is 1.0.
For `CC(=O)O` [Acetic Acid], in data set [2], the VISUAL result is “no change”. The same compound had a pH in data set [3] of 3.0. Moreover, the “RING APPEARANCE” value in data set [4] is listed as “dark brown waterfront ring”.
On the same counts, the results for `O=C(O)CCC(=O)O` [Succinic Acid] are “no change”, 2.0 and “dark brown waterfront ring”.
Consider `OC[C@H]1O[C@@](CO)(O[C@H]2O[C@H](CO)[C@@H](O)[C@H](O)[C@H]2O)[C@@H](O)[C@@H]1O` [Sucrose], for which the “RING APPEARANCE” value is given as “light staggered ring” in data set [1] and “brown staggered rings” in data set [4]. The VISUAL result in data set [2] is “no change”; in data set [5] it was “precipitated solids”. Further, the pH in data set [3] is 7.0.
For the compound `O=C(O)CC(O)(CC(=O)O)C(=O)O` [Citric Acid], the VISUAL entry in data set [2] was “no change”. Also, the pH in data set [3] is listed as 1.5. The “RING APPEARANCE” value in data set [4] was “dark brown waterfront ring”.
Take `NCC(=O)[O-].NCC(=O)[O-].[Fe+2]` [Sample 1, ferrous bisglycinate]: the “solids left behind on filter paper” value in data set [6] is “small clump of precipitate”. The “portion precipitated from solution (visual examination)” value in data set [7] was “approximately 50%”.
Regarding `O=C(O)CC(O)C(=O)O` (centres unmarked) [Malic Acid], in data set [1] (added to separate samples of iron bisglycinate, versus control), the “mobility and solubility on the filter paper” value is “enhancement of mobility and solubility”. The “RING APPEARANCE” value is “dark waterfront ring” in data set [1] and “dark brown waterfront ring” in data set [4]. The VISUAL entry in data set [2] is reported as “no change”; in data set [5] it was “no precipitation”. The pH in data set [3] is given as 2.0.
For `O=C1O[C@H]([C@@H](O)CO)C(O)=C1O` [Ascorbic Acid], the “RING APPEARANCE” value in data set [1] was “dark waterfront ring”; in data set [4], “dark brown waterfront ring”. For the same compound, the VISUAL result in data set [2] is listed as “no change”; in data set [5], “no precipitation”. The same compound showed a pH in data set [3] of 4.5.
